The values that follow are results of earlier work, collected in patent US20220249381A1, “COMPRESSED MACITENTAN COMPOSITIONS, METHODS AND USES THEREOF” (TECNIMEDE - SOCIEDADE TÉCNICO-MEDICINAL, SA, priority 2019, published 2022).

Consider `CCCNS(=O)(=O)Nc1ncnc(OCCOc2ncc(Br)cn2)c1-c1ccc(Br)cc1` [Macitentan, N-[5-(4-Bromophenyl)-6-[2-[(5-bromo-2-pyrimidinyl)oxy]ethoxy]-4-pyrimidinyl]-N′propylsulfamide], for which the solubility result (BCS characterisation) is on record as “low solubility”. In addition, the “solubility in organic solvents” value (methanol and ethanol) is listed as “only slightly soluble”. The “solubility in aqueous solutions” value (room temperature, pH 1.2, 4, 6.8, 7, 9) was “insoluble”.
